EPA's ToxRefDB 2

What was measured:
[1] = test system: rabbit; conditions: Prenatal developmental toxicity study, new zealand white, Oral, Gavage/Intubation, dose end: 19 GD, group: maternal
[2] = test system: rat; conditions: Subchronic oral toxicity in rodents, other, Feed, dose end: 90 day
[3] = test system: rat; conditions: Combined chronic toxicity/carcinogenicity, sprague dawley, Oral, Feed, dose end: 24 month
[4] = test system: mouse; conditions: Carcinogenicity, cd1, Oral, Feed, dose end: 18 month, group: systemic
[5] = test system: dog; conditions: Chronic toxicity, beagle, Oral, Feed, dose end: 52 week
[6] = test system: rat; conditions: Subchronic oral toxicity in rodents, Charles River Crl:CD BR, Feed, dose end: 6 week
[7] = test system: rat; conditions: Prenatal developmental toxicity study, other, Oral, Gavage/Intubation, dose end: 16 GD, group: maternal
[8] = test system: mouse; conditions: Subchronic oral toxicity in rodents, cd1, Feed, dose end: 7 week
[9] = test system: dog; conditions: Subchronic oral toxicity in nonrodent, beagle, Feed, dose end: 103 day
[10] = test system: dog; conditions: Subchronic oral toxicity in nonrodent, beagle, Feed, dose end: 26 week
[11] = test system: rat; conditions: Multigenerational reproductive toxicity study, wistar, Oral, Feed, dose end: 2 generation
[12] = test system: rat; conditions: Developmental neurotoxicity study; sprague dawley; Oral; Gavage/Intubation; dose end: 125 PND; group: cannot be grouped; systemic / in life observation / body weight / offspring (pup) weight + systemic / in life observation / body weight / offspring (pup) …
[13] = test system: rat; conditions: Multigenerational reproductive toxicity study, wistar, Oral, Feed, dose end: 2 generation; remark: listed apart in the source
[14] = reproductive / reproductive performance / resorptions / resorptions + systemic / in life observation / body weight / body weight gain + …
[15] = group: cholinesterase, cholinesterase / cholinesterase / cholinesterase / brain cholinesterase (che) + cholinesterase / cholinesterase / cholinesterase / …
[16] = group: systemic, systemic / in life observation / clinical signs / body surface staining + systemic / in life observation / clinical signs / hunched posture…
[17] = group: cholinesterase, cholinesterase / cholinesterase / cholinesterase / erythrocyte cholinesterase (che)
[18] = group: systemic, systemic / clinical chemistry / sodium / sodium
[19] = systemic / in life observation / body weight / body weight gain + systemic / in life observation / clinical signs / fur (altered appearance…
[20] = group: cholinesterase, cholinesterase / cholinesterase / cholinesterase / erythrocyte cholinesterase (che) + cholinesterase / cholinesterase / cholinesterase / …
[21] = group: systemic, systemic / clinical chemistry / albumin / albumin + systemic / clinical chemistry / alkaline phosphatase (alp/alk) / alkaline phosphatase (…
[22] = group: cholinesterase, cholinesterase / cholinesterase / cholinesterase / brain cholinesterase (che)
[23] = group: cholinesterase, cholinesterase / cholinesterase / cholinesterase / brain cholinesterase (che) + cholinesterase / cholinesterase / cholinesterase / plasma …
[24] = group: systemic, systemic / in life observation / body weight / body weight gain
[25] = group: systemic, systemic / in life observation / body weight / body weight gain + systemic / in life observation / body weight / body weight
[26] = systemic / in life observation / body weight / body weight gain + systemic / in life observation / mortality / mortality + reproductive / …
[27] = systemic / in life observation / body weight / body weight gain + systemic / in life observation / mortality / mortality + systemic / in …
[28] = group: cholinesterase, cholinesterase / cholinesterase / cholinesterase / plasma cholinesterase (che)
[29] = group: systemic, systemic / in life observation / body weight / body weight gain + systemic / in life observation / mortality / mortality + systemic / in …
[30] = group: cholinesterase, cholinesterase / cholinesterase / cholinesterase / brain (regional) cholinesterase (che) + cholinesterase / cholinesterase / cholinesterase…
[31] = group: systemic, systemic / clinical chemistry / albumin / albumin + systemic / clinical chemistry / calcium / calcium + systemic / clinical chemistry / …
[32] = group: systemic, systemic / in life observation / clinical signs / defecation (diarrhea)
[33] = group: systemic, systemic / in life observation / clinical signs / defecation (diarrhea) + systemic / in life observation / clinical signs / distended …
[34] = group: offspring, systemic / in life observation / body weight / offspring (pup) weight
[35] = group: parental, systemic / organ weight / epididymis / absolute + systemic / organ weight / testes / absolute
[36] = group: offspring, developmental / developmental landmark / anogenital distance (agd) / anogenital distance (agd) + developmental / developmental landmark / …
[37] = group: parental, systemic / in life observation / body weight / body weight gain + systemic / in life observation / body weight / body weight + systemic / …
[38] = group: reproductive, reproductive / offspring survival early / birth index / live birth index + reproductive / reproductive performance / estrous cycle / …

Which results are given for `CCOP(=S)(OCC)OC(Cl)C(Cl)(Cl)Cl` (configuration not stated) [Chlorethoxyfos]?
LOAEL ([1]; reproductive / reproductive performance / resorptions / resorptions): 3.1 mg/kg/day; LEL [1, 14]: 3.1 mg/kg/day; NEL [1, 14]: 1.38 mg/kg/day; NOAEL [1, 14]: 1.38 mg/kg/day; LEL [2, 15]: 0.635 mg/kg/day; LOAEL [2, 15]: > 1.64 mg/kg/day; NEL [2, 15]: 0.08 mg/kg/day; NOAEL [2, 15]: ≥ 1.64 mg/kg/day; LEL [2, 16]: 1.23 mg/kg/day; LOAEL [2, 16]: 1.23 mg/kg/day; NEL [2, 16]: 0.635 mg/kg/day; NOAEL [2, 16]: 0.635 mg/kg/day; LEL [3, 17]: 0.311 mg/kg/day; LOAEL [3, 17]: 0.311 mg/kg/day; NEL [3, 17]: 0.154 mg/kg/day; NOAEL [3, 17]: 0.154 mg/kg/day; LEL [3, 18]: 0.416 mg/kg/day; LOAEL [3, 18]: > 0.416 mg/kg/day; NEL [3, 18]: 0.208 mg/kg/day; NOAEL [3, 18]: ≥ 0.416 mg/kg/day; LOAEL [4, 19]: 14.9 mg/kg/day; NEL [4, 19]: 0.337 mg/kg/day; NOAEL [4, 19]: 3.25 mg/kg/day; LEL ([4]; systemic / pathology gross / skin / discolored): 3.25 mg/kg/day; LEL [5, 20]: 0.591 mg/kg/day; LOAEL [5, 20]: 0.591 mg/kg/day; NEL [5, 20]: 0.065 mg/kg/day; NOAEL [5, 20]: 0.065 mg/kg/day; LOAEL ([5]; group: systemic, systemic / clinical chemistry / albumin / albumin): 1.86 mg/kg/day; NEL [5, 21]: 0.065 mg/kg/day; NOAEL [5, 21]: 0.591 mg/kg/day; LEL ([5]; group: systemic, systemic / clinical chemistry / calcium / calcium): 0.591 mg/kg/day; LEL [6, 22]: 0.66 mg/kg/day; LOAEL [6, 22]: 0.66 mg/kg/day; NEL [6, 23]: 0.132 mg/kg/day; NOAEL [6, 23]: 0.132 mg/kg/day; LOAEL [6, 24]: 0.958 mg/kg/day; LEL [6, 25]: 0.958 mg/kg/day; NEL [6, 25]: 0.477 mg/kg/day; NOAEL [6, 25]: 0.477 mg/kg/day; LEL [7, 26]: 0.5 mg/kg/day; LOAEL [7, 26]: 0.5 mg/kg/day; NEL [7, 27]: 0.25 mg/kg/day; NOAEL [7, 27]: 0.25 mg/kg/day; LEL [8, 28]: 0.15 mg/kg/day; LOAEL [8, 28]: 0.15 mg/kg/day; NEL [8, 28]: 0.015 mg/kg/day; NOAEL [8, 28]: 0.015 mg/kg/day; LOAEL [8, 24]: 11.2 mg/kg/day; LEL ([8]; group: systemic, systemic / in life observation / body weight / body weight gain + systemic / in life observation / body weight / body weight + systemic / in…): 11.2 mg/kg/day; NEL [8, 29]: 0.15 mg/kg/day; NOAEL [8, 29]: 0.15 mg/kg/day; LEL [9, 30]: 0.125 mg/kg/day; LOAEL [9, 30]: 0.125 mg/kg/day; NEL [9, 30]: 0.0125 mg/kg/day; NOAEL [9, 30]: 0.0125 mg/kg/day; LEL [9, 31]: 1.25 mg/kg/day; LOAEL [9, 31]: > 1.25 mg/kg/day; NEL [9, 31]: 0.125 mg/kg/day; NOAEL [9, 31]: ≥ 1.25 mg/kg/day; LEL [10, 28]: 0.061 mg/kg/day; LOAEL [10, 28]: 0.578 mg/kg/day; NEL [10, 28]: < 0.061 mg/kg/day; NOAEL ([10]; group: cholinesterase, cholinesterase / cholinesterase / cholinesterase / plasma cholinesterase (che) + cholinesterase / cholinesterase / cholinesterase / brain (…): 0.061 mg/kg/day; LEL [10, 32]: 0.578 mg/kg/day; LOAEL [10, 32]: 0.578 mg/kg/day; NEL [10, 33]: 0.061 mg/kg/day; NOAEL [10, 33]: 0.061 mg/kg/day

Which LEL [11, 34] does the source give for `CCC[CH2][Sn]([Cl])([CH2]CCC)[CH2]CCC` [Tributyltin chloride] here?
Its LEL is 0.25 mg/kg/day.

What about the LOAEL [11, 34] of the same compound?
Its LOAEL is 0.25 mg/kg/day.

And the NEL [11, 34]?
The NEL was less than 0.25 mg/kg/day.

And the NOAEL [11, 34]?
Its NOAEL is less than 0.25 mg/kg/day.

What about the LEL [11, 35] of the same compound?
The LEL was 0.25 mg/kg/day.

What about the LOAEL [11, 35] of the same compound?
The LOAEL was 0.25 mg/kg/day.

And the NEL [11, 35]?
The NEL was less than 0.25 mg/kg/day.

And the NOAEL [11, 35]?
The NOAEL was less than 0.25 mg/kg/day.

What about the LEL [12] of the same compound?
Its LEL is 5 mg/kg/day.

What about the LOAEL [12] of the same compound?
The LOAEL was greater than 5 mg/kg/day.

And the NEL [12]?
Its NEL is 1 mg/kg/day.

And the NOAEL [12]?
The NOAEL was no less than 5 mg/kg/day.

And the LEL ([13]; group: offspring, developmental / developmental landmark / anogenital distance (agd) / anogenital distance (agd))?
Its LEL is 1.25 mg/kg/day.

What about the LOAEL [13, 36] of the same compound?
The LOAEL was greater than 6.25 mg/kg/day.

What about the NEL [13, 36] of the same compound?
The NEL was 0.25 mg/kg/day.

And the NOAEL [13, 36]?
Its NOAEL is no less than 6.25 mg/kg/day.

What about the NEL ([13]; group: parental, systemic / in life observation / body weight / body weight gain) of the same compound?
Its NEL is 1.25 mg/kg/day.

What about the LEL [13, 37] of the same compound?
Its LEL is 6.25 mg/kg/day.

What about the LOAEL [13, 37] of the same compound?
Its LOAEL is greater than 6.25 mg/kg/day.

What about the NOAEL [13, 37] of the same compound?
The NOAEL was no less than 6.25 mg/kg/day.

What about the LEL [13, 38] of the same compound?
The LEL was 6.25 mg/kg/day.

And the LOAEL [13, 38]?
Its LOAEL is greater than 6.25 mg/kg/day.

What about the NEL [13, 38] of the same compound?
Its NEL is 1.25 mg/kg/day.

And the NOAEL [13, 38]?
Its NOAEL is no less than 6.25 mg/kg/day.
